These results are taken from patent US8138168B1 (Takeda Pharmaceutical Company Limited, priority 2007, dated 2012).

Bounds are passed on as bounds.

In general, IC50 refers to the midpoint of a concentration-inhibition curve.

The experiment concerns the target T1, Recombinant human renin (Homo sapiens, UniProt P00797).
T1 construct: isolate the active form (residues 67-406); made in house; host or cells: FreeStyle 293-F cells (transient expression of pcDNA3.1(+)/hREN)
T1 sequence (P00797 67-406): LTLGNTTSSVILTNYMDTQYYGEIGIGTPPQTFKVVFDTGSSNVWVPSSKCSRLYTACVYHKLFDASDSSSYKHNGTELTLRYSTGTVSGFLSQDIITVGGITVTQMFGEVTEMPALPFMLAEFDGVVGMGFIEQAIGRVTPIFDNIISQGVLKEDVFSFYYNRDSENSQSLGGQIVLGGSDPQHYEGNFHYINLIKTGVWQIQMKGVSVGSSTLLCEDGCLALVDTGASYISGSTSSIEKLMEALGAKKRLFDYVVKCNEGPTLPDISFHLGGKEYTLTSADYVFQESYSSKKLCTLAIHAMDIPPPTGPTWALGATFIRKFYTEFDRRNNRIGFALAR
Kind of experiment: In vitro enzymatic activity assay of renin inhibitors (fluorogenic peptide substrate). The format is biochemical. The note with it: read-out: IC50 of Exemplified Compounds Against Renin. The gist of the method: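 Recombinant human renin (3 nM final) pre-incubated 10 min at 37 °C with compounds in pH 7.4 Hepes/EDTA/DTT/0.1 mg/mL BSA/Brij35 buffer (optionally plus 2% BSA), 5% DMSO final; fluorogenic QXL520/HiLyteFluo488 peptide substrate added.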

Regarding `COCCCn1c([C@@H]2CCCN(C(=O)C[C@H](N)Cc3ccc4ccccc4c3)C2)nc2ccc(F)cc21` [Compound 95, (R)-3-amino-1((R)-3-(6-fluoro-1-(3-methoxypropyl)-1H-benzo[d]imidazol-2-yl)piperidin-1-yl)-4-(naphthalen-2-yl)butan-1-one], the IC50 lay in the range of 0.1 to 1 µM. With `COCCCn1c([C@@H]2CCCN(C(=O)[C@@H]3CN(C(=O)Nc4ccc(OC)cc4)C[C@H]3N)C2)nc2ccccc21` [Compound 415, (3S,4R)-3-amino-N-(4-methoxyphenyl)-4-((R)-3-(1-(3-methoxypropyl)-1H-benzo[d]imidazol-2-yl)piperidine-1-carbonyl)pyrrolidine-1-carboxamide], the IC50 was greater than 1 µM. With `COCCCn1c([C@@H]2CCCN(C(=O)[C@@H]3CN(C(=O)c4cccc(F)c4)C[C@H]3N)C2)nc2ccccc21` [Compound 393, ((3R,4S)-4-amino-1-(3-fluorobenzoyl)pyrrolidin-3-yl)((R)-3-(1-(3-methoxypropyl)-1H-benzo[d]imidazol-2-yl)piperidin-1-yl)methanone], the IC50 was greater than 1 µM. Consider `COCCCn1c([C@@H]2CCCN(C(=O)[C@@H]3CN(S(=O)(=O)c4ccc(C#N)cc4Cl)C[C@H]3N)C2)nc2ccccc21` [Compound 391, 4-((3S,4R)-3-amino-4-((R)-3-(1-(3-methoxypropyl)-1H-benzo[d]imidazol-2-yl)piperidine-1-carbonyl)pyrrolidin-1-ylsulfonyl)-3-chlorobenzonitrile], for which the IC50 is greater than 1 µM.

Consider `COCCCn1c([C@@H]2CCCN(C(=O)[C@@H]3CN(C(=O)c4ccc(C(=O)OC)cc4)C[C@H]3N)C2)nc2ccccc21` [Compound 422, methyl 4-((3S,4R)-3-amino-4-((R)-3-(1-(3-methoxypropyl)-1H-benzo[d]imidazol-2-yl)piperidine-1-carbonyl)pyrrolidine-1-carbonyl)benzoate], for which the IC50 was greater than 1 µM. Consider `Cc1cccc(C[C@@H](N)CC(=O)N2CCCC(c3nc4ccccc4[nH]3)C2)c1` (stereo partly drawn) [Compound 43, (3R)-1-(3-(1H-benzo[d]imidazol-2-yl)piperidin-1-yl)-3-amino-4-m-tolylbutan-1-one], for which the IC50 was greater than 1 µM. For the compound `CC(C)C[C@H](N)C(=O)N1CCCC(c2nc3ccccc3[nH]2)C1` (stereo partly drawn) [Compound 46, (2S)-1-(3-(1H-benzo[d]imidazol-2-yl)piperidin-1-yl)-2-amino-4-methylpentan-1-one], the IC50 was greater than 1 µM. In the case of `COCCCn1c([C@@H]2CCCN(C(=O)[C@@H]3CN(C(=O)Nc4ccccc4)C[C@H]3N)C2)nc2ccccc21` [Compound 404, (3S,4R)-3-amino-4-((R)-3-(1-(3-methoxypropyl)-1H-benzo[d]imidazol-2-yl)piperidine-1-carbonyl)-N-phenylpyrrolidine-1-carboxamide], the IC50 was greater than 1 µM. As for `COCCCn1c([C@@H]2CCCN(C(=O)C[C@H](N)c3cccc(OC)c3)C2)nc2ccccc21` [Compound 121], the IC50 is greater than 1 µM. Turning to `COCCCn1c([C@@H]2CCCN(C(=O)C[C@H](N)Cc3ccc(-c4ccc(S(C)(=O)=O)cc4)cc3)C2)nc2ccccc21` [Compound 165, (R)-3-amino-1((R)-3-(1-(3-methoxypropyl)-1H-benzo[d]imidazol-2-yl)piperidin-1-yl)-4-(4′-(methylsulfonyl)biphenyl-4-yl)butan-1-one], the IC50 is less than 0.1 µM. In the case of `Cc1ccccc1C[C@@H](N)CC(=O)N1CCCC(c2nc3ccccc3[nH]2)C1` (stereo partly drawn) [Compound 42, (3R)-1-(3-(1H-benzo[d]imidazol-2-yl)piperidin-1-yl)-3-amino-4-o-tolylbutan-1-one] it was greater than 1 µM; in that of `COCCCn1c([C@@H]2CCCN(C(=O)C[C@@H](N)COc3nc4ccccc4[nH]3)C2)nc2ccccc21` [Compound 434, (R)-4-(1H-benzo[d]imidazol-2-yloxy)-3-amino-1-((R)-3-(1-(3-methoxypropyl)-1H-benzo[d]imidazol-2-yl)piperidin-1-yl)butan-1-one], 0.1 to 1 µM. Take `COCCCn1c([C@@H]2CCCN(C(=O)C[C@H](N)Cc3ccc4ccccc4c3)C2)nc2cc(F)ccc21` [Compound 96, (R)-3-amino-1((R)-3-(5-fluoro-1-(3-methoxypropyl)-1H-benzo[d]imidazol-2-yl)piperidin-1-yl)-4-(naphthalen-2-yl)butan-1-one]: the IC50 lay within 0.1 to 1 µM. Consider `COCCCn1c([C@@H]2CCCN(C(=O)[C@@H]3CN(C(=O)c4cccc(Oc5ccccc5)c4)C[C@H]3N)C2)nc2ccccc21` [Compound 358, ((3R,4S)-4-amino-1-(3-phenoxybenzoyl)pyrrolidin-3-yl)((R)-3-(1-(3-methoxypropy1)-1H-benzo[d]imidazol-2-yl)piperidin-1-yl)methanone], for which the 50% inhibitory concentration (IC50) was 0.1 to 1 µM.

On to `CCNC(=O)Nc1ccc(-c2ccc(C[C@@H](N)CC(=O)N3CCC[C@@H](c4nc5ccccc5n4CCCOC)C3)cc2)cc1` [Compound 173, 1-(4′-((R)-2-amino-4-((R)-3-(1-(3-methoxypropyl)-1H-benzo[d]imidazol-2-yl)piperidin-1-yl)-4-oxobutyl)biphenyl-4-yl)-3-ethylurea], for which the half-inhibitory concentration (IC50) was less than 0.1 µM. In the case of `COCCCn1c([C@@H]2CCCN(C(=O)C[C@H](N)Cc3ccc(-c4ccc(N)nc4)cc3)C2)nc2ccccc21` [Compound 136, (R)-3-amino-4-(4-(6-aminopyridin-3-yl)phenyl)-1-((R)-3-(1-(3-methoxypropyl)-1H-benzo[d]imidazol-2-yl)piperidin-1-yl)butan-1-one] it was less than 0.1 µM. In the case of `COCCCn1c([C@@H]2CCCN(C(=O)C[C@H](N)Cc3ccc(-c4ccc5c(c4)OCC(=O)N5)cc3)C2)nc2c(F)cccc21` [Compound 443, 7-(4-((R)-2-amino-4-((R)-3-(4-fluoro-1-(3-methoxypropyl)-1H-benzo[d]imidazol-2-yl)piperidin-1-yl)-4-oxobutyl)phenyl)-2H-benzo[b][1,4]oxazin-3(4H)-one] it was less than 0.1 µM; in that of `COCCCn1c([C@@H]2CCCN(C(=O)C[C@H](N)Cc3ccc(-c4cnc(C)n4C)cc3)C2)nc2ccccc21` [Compound 204, (R)-3-amino-4-(4-(1,2-dimethyl-1H-imidazol-5-yl)phenyl)-1-((R)-3-(1-(3-methoxypropyl)-1H-benzo[d]imidazol-2-yl)piperidin-1-yl)butan-1-one], 0.1 to 1 µM; in that of `COCCCn1c(C2CC(C)CN(C(=O)C[C@H](N)Cc3ccc4ccccc4c3)C2)nc2ccccc21` (stereo partly drawn) [Compound 246, (3R)-3-amino-1-(3-(1-(3-methoxypropyl)-1H-benzo[d]imidazol-2-yl)-5-methylpiperidin-1-yl)-4-(naphthalen-2-yl)butan-1-one], greater than 1 µM.

As for `N[C@@H](CC(=O)N1CCCC(c2nc3ccccc3[nH]2)C1)c1cccc(Cl)c1Cl` (stereo partly drawn) [Compound 37, (3S)-1-(3-(1H-benzo[d]imidazol-2-yl)piperidin-1-yl)-3-amino-3-(2,3-dichlorophenyl)propan-1-one], the IC50 is greater than 1 µM. For the compound `O=C(Nc1ccc2c(c1)OCCO2)N1CCCC(c2nc3ccccc3[nH]2)C1` (stereo not drawn) [Compound 15, 3-(1H-benzo[d]imidazol-2-yl)-N-(2,3-dihydrobenzo[b][1,4]dioxin-6-yl)piperidine-1-carboxamide], the IC50 is greater than 1 µM.

Regarding `COCCCn1c([C@@H]2CCCN(C(=O)C[C@H](N)Cc3ccc(-c4ccc(C(=O)NCCOC)cc4)cc3)C2)nc2ccccc21` [Compound 177, 4′-((R)-2-amino-4-((R)-3-(1-(3-methoxypropyl)-1H-benzo[d]imidazol-2-yl)piperidin-1-yl)-4-oxobutyl)-N-(2-methoxyethyl)biphenyl-4-carboxamide], the IC50 is less than 0.1 µM. For the compound `COCCCn1c([C@@H]2CCCN(C(=O)C[C@H](N)Cc3ccc(-c4csc(OC)n4)cc3)C2)nc2ccccc21` [Compound 201, (R)-3-amino-1-((R)-3-(1-(3-methoxypropyl)-1H-benzo[d]imidazol-2-yl)piperidin-1-yl)-4-(4-(2-methoxythiazol-4-yl)phenyl)butan-1-one], the IC50 is less than 0.1 µM.

Regarding `COCCCn1c([C@@H]2CCCN(C(=O)C[C@H](N)CNC(=O)Nc3ccc(OC)cc3C)C2)nc2ccccc21` [Compound 292, 1-((S)-2-amino-4-((R)-3-(1-(3-methoxypropyl)-1H-benzo[d]imidazol-2-yl)piperidin-1-yl)-4-oxobutyl)-3-(4-methoxy-2-methylphenyl)urea], the IC50 fell in the range of 0.1 to 1 µM. For `CC(=O)NCCn1c([C@@H]2CCCN(C(=O)C[C@H](N)Cc3ccc(-c4ccc5c(c4)OCCO5)cc3)C2)nc2c(C)cccc21` [Compound 477, N-(2-(2-((R)-1-((R)-3-amino-4-(4-(2,3-dihydrobenzo[b][1,4]dioxin-6-yl)phenyl)butanoyl)piperidin-3-yl)-4-methyl-1H-benzo[d]imidazol-1-yl)ethyl)acetamide], the IC50 was 0.1 to 1 µM. Regarding `COCCCn1c(C2CCCN(C(=O)C[C@@H](N)c3ccccc3)C2)nc2ccccc21` (stereo partly drawn) [Compound 65, (3R)-3-amino-1-(3-(1-(3-methoxypropyl)-1H-benzo[d]imidazol-2-yl)piperidin-1-yl)-3-phenylpropan-1-one], the IC50 was greater than 1 µM. In the case of `COCCCn1c([C@@H]2CCCN(C(=O)[C@@H]3CN(S(=O)(=O)c4cccc(OC)c4)C[C@H]3N)C2)nc2ccccc21` [Compound 357, ((3R,4S)-4-amino-1-(3-methoxyphenylsulfonyl)pyrrolidin-3-yl)((R)-3-(1-(3-methoxypropyl)-1H-benzo[d]imidazol-2-yl)piperidin-1-yl)methanone], the IC50 fell in the range of 0.1 to 1 µM.
